In US6699849B1, “Cyclodextrin complexes of benzodiazepines” (Cyclops, ehf., priority 1998, dated 2004):

Assays:
Assay type in all cases: physicochemical
[1] = Solubility of midazolam versus pH in buffer, 10% HPβCD and 10% HPβCD + 0.10% HPMC; conditions: 10% (w/v) HPβCD + 0.10% (w/v) HPMC, FIG. 3
Experimental: Midazolam is a water-insoluble weak base (pKa 6.2) which forms a somewhat water-soluble cation in acidic solution. Solubility (S) of midazolam at several different pH levels was determined in: a) pure aqueous buffer solutions (i.e. without HPβCD and HPMC); b) aqueous buffer solutions containing 10% (w/v) 2-hydroxypropyl-β-cyclodextrin (HPβCD) of molar substitution (MS)=0.3; and c) aqueous solutions containing 10% (w/v) 2-hydroxypropyl-β-cyclodextrin (HPβCD) of molar substitution (MS)=0.3 and 0.10% (w/v) hydroxypropyl methylcellulose (HPMC) 4000. Excess amount of the drug was added to the aqueous solution and the suspension formed was heated in a sealed container in an autoclave (120-140° C. for 20-40 minutes). After equilibration at room temperature (22-23° C.) for seven days, the suspension was filtered through a 0.45 μm membrane filter, diluted with aqueous methanolic solution and the amount of dissolved midazolam determined by a high pressure liquid chromatographic method (HPLC). FIG. 3 illustrates the effect of pH (i.e. the ring-opening) on the solubility of midazolam (pKa 6.2) in pure aqueous buffer solutions (●), aqueous buffer solutions containing 10% (w/v) HPβCD (▪), and aqueous buffer solutions containing both 10% (w/v) HPβCD and 0.10% (w/v) HPMC (♦) at room temperature.

[2] = First-order rate constant of diazepine ring-closure (regeneration of the benzodiazepine); conditions: pH 7.5, 37° C.
Experimental: The effect of cyclodextrins and organic solvents on the rate of diazepine ring-closure of several selected benzodiazepines was investigated. Stock solutions containing 1.0×10^−3 M of the benzodiazepine in 0.10 M aqueous hydrochloric acid solution (pH approx. 1.1) were prepared and stored at 37.0° C. The benzodiazepines were in the ring-open form in these stock solutions. Aqueous 0.50 M tris buffer (pH 7.50) solution was prepared. The observed first-order rate constant for the closing (i.e. formation) of the benzodiazepine ring was determined in the following reaction media: a) pure aqueous tris buffer solution; b) aqueous tris buffer solution containing 10% (w/v) cyclodextrin; c) tris buffer solution containing 10% (w/v) cyclodextrin and 10% (v/v) ethanol (EtOH); d) tris buffer solution containing 10% (w/v) cyclodextrin and 50% (v/v) EtOH; e) tris buffer solution containing 10% (w/v) cyclodextrin and 10% (v/v) dimethylsulfoxide (DMSO); and f) tris buffer solution containing 10% (w/v) cyclodextrin and 50% (w/v) DMSO. The stock solution (30 μl) was added to 1.50 ml of the reaction media which had previously been equilibrated to 37.0° C. and the first-order rate constant for the appearance of the closed form determined from the appearance of the closed form as observed on HPLC. Tables 5, 6 and 7 show the effects of cyclodextrins, EtOH and DMSO on the observed first-order rate constant for the regeneration of alprazolam, triazolam and midazolam, respectively. In pure aqueous buffer solutions, addition of EtOH and DMSO decreases somewhat the rate of ring closure, at least in the case of alprazolam and midazolam. Addition of cyclodextrin or the organic solvents have insignificant effect on the pH under these conditions. The dielectric constant of the reaction medium will, however, decrease upon addition of the organic solvents. It is possible that this decrease in the dielectric constant will reduce the ability of the reaction media to stabilize the transition state which could explain the decrease in the observed rate constant. […] The cyclodextrins formed stable complexes with the ring-open form of the drug and, thus, the rate decreased upon addition of cyclodextrin. […] EtOH and DMSO will compete with the diazepine ring-open form for a space in the cyclodextrin cavity resulting in decreased complexation.

[3] = Solubility of midazolam versus pH with cyclodextrins and 10% (v/v) acetic acid
Experimental: Excess amount of the drug was added to the aqueous HPβCD solution and the suspension formed was heated in a sealed container in an autoclave (120-140° C. for 20-40 minutes). After equilibration at room temperature (22-23° C.) for seven days, the suspension was filtered through a 0.45 μm membrane filter, diluted with aqueous methanolic solution and the amount of dissolved midazolam determined by a high pressure liquid chromatographic method (HPLC). FIG. 4 illustrates the effects of cyclodextrins, pH and 10% (v/v) acetic acid on the solubility of midazolam in aqueous solutions: pure aqueous buffer solution (▴); aqueous 10% (v/v) acetate solution (●); 10% (w/v) HPβCD solution containing 0.10% (w/v) HPMC in aqueous 10% (v/v) acetic acid solution (▪); 10% (w/v) aqueous SBEβCD solution in aqueous 10% (v/v) acetate (♦).

[4] = Effect of pH and cyclodextrins on the fraction of the open form (diazepine ring-opening) of benzodiazepines
Experimental: The cyclodextrin concentration was 10% (w/v) and the benzodiazepine concentration was 1×10^−4 M. The concentration of the closed form was determined immediately after dissolving the benzodiazepine in the aqueous cyclodextrin solution and again 24 hours later (i.e. after equilibration at 23° C.). Preliminary experiments had shown that equilibrium between the closed and the open form was attained within 3 hours at 23° C.

Structure (SMILES): Cc1ncc2n1-c1ccc(Cl)cc1C(c1ccccc1F)=NC2 [midazolam, 8-chloro-6-(2-fluorophenyl)-1-methyl-4H-imidazo[1,5-a][1,4]benzodiazepine]
- effect of addition of HPMC on complexation efficiency [1]: significantly improves
- observed first-order rate constant, ring formation ([2]; 10% HPβCD, 10% DMSO): 0.0336 min⁻¹
- observed first-order rate constant, ring formation ([2]; 10% HPβCD, 10% EtOH): 0.0386 min⁻¹
- observed first-order rate constant, ring formation ([2]; 10% HPβCD, 50% DMSO): 0.084 min⁻¹
- observed first-order rate constant, ring formation ([2]; 10% HPβCD, 50% EtOH): 0.0653 min⁻¹
- observed first-order rate constant, ring formation ([2]; 10% HPβCD, pure water): 0.0277 min⁻¹
- observed first-order rate constant, ring formation ([2]; 10% RMβCD, 10% DMSO): 0.0494 min⁻¹
- observed first-order rate constant, ring formation ([2]; 10% RMβCD, 10% EtOH): 0.0424 min⁻¹
- observed first-order rate constant, ring formation ([2]; 10% RMβCD, 50% DMSO): 0.0848 min⁻¹
- observed first-order rate constant, ring formation ([2]; 10% RMβCD, 50% EtOH): 0.0699 min⁻¹
- observed first-order rate constant, ring formation ([2]; 10% RMβCD, pure water): 0.0305 min⁻¹
- observed first-order rate constant, ring formation ([2]; 10% SBEβCD, 10% DMSO): 0.0224 min⁻¹
- observed first-order rate constant, ring formation ([2]; 10% SBEβCD, 10% EtOH): 0.033 min⁻¹
- observed first-order rate constant, ring formation ([2]; 10% SBEβCD, 50% DMSO): 0.0855 min⁻¹
- observed first-order rate constant, ring formation ([2]; 10% SBEβCD, 50% EtOH): 0.065 min⁻¹
- observed first-order rate constant, ring formation ([2]; 10% SBEβCD, pure water): 0.013 min⁻¹
- observed first-order rate constant, ring formation ([2]; No CD, 10% DMSO): 0.138 min⁻¹
- observed first-order rate constant, ring formation ([2]; No CD, 10% EtOH): 0.126 min⁻¹
- observed first-order rate constant, ring formation ([2]; No CD, 50% DMSO): 0.109 min⁻¹
- observed first-order rate constant, ring formation ([2]; No CD, 50% EtOH): 0.0841 min⁻¹
- observed first-order rate constant, ring formation ([2]; No CD, pure water): 0.179 min⁻¹
- effect of 10% (v/v) acetic acid co-solvent on fraction of the open ring form [3]: small decrease
- effect of addition of 10% (v/v) acetic acid on complexation ([3]; cyclodextrin solutions, FIG. 4): significantly improves
- Fraction open ([4]; 10% (w/v) HPβCD, pH 2, approx. 23° C.): 0.56
- Fraction open ([4]; 10% (w/v) HPβCD, pH 3, approx. 23° C.): 0.18
- Fraction open ([4]; 10% (w/v) HPβCD, pH 4, approx. 23° C.): 0.23
- Fraction open ([4]; 10% (w/v) SBEβCD, pH 2, approx. 23° C.): 0.81
- Fraction open ([4]; 10% (w/v) SBEβCD, pH 3, approx. 23° C.): 0.39
- Fraction open ([4]; 10% (w/v) SBEβCD, pH 4, approx. 23° C.): 0.11
- Fraction open ([4]; 10% (w/v) αCD, pH 2, approx. 23° C.): 0.79
- Fraction open ([4]; 10% (w/v) αCD, pH 3, approx. 23° C.): 0.32
- Fraction open ([4]; 10% (w/v) αCD, pH 4, approx. 23° C.): 0.10
- Fraction open ([4]; 10% (w/v) γCD, pH 2, approx. 23° C.): 0.61
- Fraction open ([4]; 10% (w/v) γCD, pH 3, approx. 23° C.): 0.21
- Fraction open ([4]; 10% (w/v) γCD, pH 4, approx. 23° C.): 0.17
- Fraction open ([4]; no cyclodextrin, pH 2, approx. 23° C.): 0.74
- Fraction open ([4]; no cyclodextrin, pH 3, approx. 23° C.): 0.28
- Fraction open ([4]; no cyclodextrin, pH 4, approx. 23° C.): 0.18
